Growth and mortality data for three molecules are collected here from ChEMBL document CHEMBL3822390, “Synthesis, characterization and anti-cancer activity of a peptide nucleolipid bioconjugate” (2016).

Molecules are shown by their SMILES.

As usually defined, the mortality is the percentage killed.

Common to all, as to assay type: functional
Experiment [1] is described as follows: Cytotoxicity against human DU145 cells assessed as cell growth at 10 uM after 48 hrs by SRB assay. The conditions noted are these: DU-145, 48 h, read-out: Activity. A general note: In SRB staining, fixed cells bind dye roughly in proportion to their protein.
A short description of experiment [2]: Cytotoxicity against human HOP92 cells assessed as cell growth at 10 uM after 48 hrs by SRB assay. The conditions noted are these: HOP-92, 48 h, read-out: Activity.
The subject of the next experiment is SK-MEL-28. Nature of the experiment: Cytotoxicity against human SK-MEL-28 cells assessed as cell growth at 10 uM after 48 hrs by SRB assay. The note with it: SK-MEL-28, 48 h, read-out: Activity.
A short description of experiment [3]: Cytotoxicity against human BT549 cells assessed as cell growth at 10 uM after 48 hrs by SRB assay. The note with it: BT-549, 48 h, read-out: Activity.
The nature of experiment [4]: Cytotoxicity against human HCT15 cells assessed as cell growth at 10 uM after 48 hrs by SRB assay. The note with it: HCT-15, 48 h, read-out: Activity.
For experiment [5], the system named is 786-0. Nature of the experiment: Cytotoxicity against human 786-0 cells assessed as cell growth at 10 uM after 48 hrs by SRB assay. The note with it: 786-0, 48 h, read-out: Activity.
Another experiment concerns NCI-H322M. The experiment can be described thus: Cytotoxicity against human NCI-H322M cells assessed as cell growth at 10 uM after 48 hrs by SRB assay. The note with it: read-out: Activity.
A further experiment has as its system SK-MEL-2. The experiment can be described thus: Cytotoxicity against human SK-MEL-2 cells assessed as cell growth at 10 uM after 48 hrs by SRB assay. The conditions noted are these: SK-MEL-2, 48 h, read-out: Activity.
A short description of experiment [6]: Cytotoxicity against human Hs 578T cells assessed as cell growth at 10 uM after 48 hrs by SRB assay. The note with it: read-out: Activity.
Experiment [7] can be described thus: Cytotoxicity against human Caki1 cells assessed as cell growth at 10 uM after 48 hrs by SRB assay. The note with it: CAKI-1, 48 h, read-out: Activity.
The next experiment deals with NCI-H226. The experiment can be described thus: Cytotoxicity against human NCI-H226 cells assessed as cell growth at 10 uM after 48 hrs by SRB assay. The conditions noted are these: NCI-H226, 48 h, read-out: Activity.
For another experiment, the system named is MDA-MB-468. The experiment can be described thus: Cytotoxicity against human MDA-MB-468 cells assessed as cell growth at 7.25 uM after 48 hrs by SRB assay. The note with it: MDA-MB-468, 48 h, read-out: Activity.
Experiment [8] is described as follows: Cytotoxicity against human MOLT4 cells assessed as cell growth at 7.25 uM after 48 hrs by SRB assay. The conditions noted are these: MOLT-4, 48 h, read-out: Activity.
The nature of experiment [9]: Cytotoxicity against human HCT116 cells assessed as cell growth at 7.25 uM after 48 hrs by SRB assay. The note with it: HCT-116, 48 h, read-out: Activity.
Experiment [10] is described as follows: Cytotoxicity against human UO31 cells assessed as cell growth at 7.25 uM after 48 hrs by SRB assay. The note with it: UO-31, 48 h, read-out: Activity.
Experiment [11] is described as follows: Cytotoxicity against human Hs 578T cells assessed as cell growth at 7.25 uM after 48 hrs by SRB assay. The note with it: read-out: Activity.
The test system of another experiment is K562. Nature of the experiment: Cytotoxicity against human K562 cells assessed as cell growth at 7.25 uM after 48 hrs by SRB assay. The note with it: K562, 48 h, read-out: Activity.
Experiment [12] in a line: Cytotoxicity against human HOP92 cells assessed as cell growth at 7.25 uM after 48 hrs by SRB assay. The conditions noted are these: HOP-92, 48 h, read-out: Activity.
The nature of experiment [13]: Cytotoxicity against human UACC62 cells assessed as cell growth at 7.25 uM after 48 hrs by SRB assay. The conditions noted are these: UACC-62, 48 h, read-out: Activity.
Experiment [14] is described as follows: Cytotoxicity against human OVCAR8 cells assessed as cell growth at 7.25 uM after 48 hrs by SRB assay. The conditions noted are these: OVCAR-8, 48 h, read-out: Activity.
Experiment [15] is described as follows: Cytotoxicity against human SF268 cells assessed as cell growth at 7.25 uM after 48 hrs by SRB assay. The note with it: SF-268, 48 h, read-out: Activity.
The subject of experiment [16] is 786-0. The experiment can be described thus: Cytotoxicity against human 786-0 cells assessed as cell growth at 7.25 uM after 48 hrs by SRB assay. The conditions noted are these: 786-0, 48 h, read-out: Activity.
A further experiment concerns SR. Nature of the experiment: Cytotoxicity against human SR cells assessed as cell growth at 7.25 uM after 48 hrs by SRB assay. The note with it: read-out: Activity.
Experiment [17] in a line: Cytotoxicity against human OVCAR4 cells assessed as cell growth at 7.25 uM after 48 hrs by SRB assay. The conditions noted are these: OVCAR-4, 48 h, read-out: Activity.
A short description of experiment [18]: Cytotoxicity against human RPMI8226 cells assessed as cell growth at 7.25 uM after 48 hrs by SRB assay. The conditions noted are these: RPMI-8226, 48 h, read-out: Activity.
Experiment [19] concerns MCF7. Nature of the experiment: Cytotoxicity against human MCF7 cells assessed as cell growth at 7.25 uM after 48 hrs by SRB assay. The note with it: MCF7, 48 h, read-out: Activity.
Experiment [20] can be described thus: Cytotoxicity against human SF295 cells assessed as cell growth at 7.25 uM after 48 hrs by SRB assay. The note with it: SF-295, 48 h, read-out: Activity.
A further experiment has as its system NCI-H522. The experiment can be described thus: Cytotoxicity against human NCI-H522 cells assessed as cell mortality at 7.25 uM after 48 hrs by SRB assay. The conditions noted are these: NCI-H522, 48 h.
The nature of experiment [21]: Cytotoxicity against human UACC257 cells assessed as cell growth at 7.25 uM after 48 hrs by SRB assay. The conditions noted are these: UACC-257, 48 h, read-out: Activity.
The next experiment concerns SN12C. The experiment can be described thus: Cytotoxicity against human SN12C cells assessed as cell growth at 7.25 uM after 48 hrs by SRB assay. The conditions noted are these: read-out: Activity.
Experiment [22] in a line: Cytotoxicity against human BT549 cells assessed as cell growth at 2.13 uM after 48 hrs by SRB assay. The conditions noted are these: BT-549, 48 h, read-out: Activity.
The nature of experiment [23]: Cytotoxicity against human LOXIMVI cells assessed as cell growth at 2.13 uM after 48 hrs by SRB assay. The conditions noted are these: LOX IMVI, read-out: Activity.
The subject of experiment [24] is MCF7. The experiment can be described thus: Cytotoxicity against human MCF7 cells assessed as cell growth at 2.13 uM after 48 hrs by SRB assay. The note with it: MCF7, 48 h, read-out: Activity.
Experiment [25] in a line: Cytotoxicity against human SKOV3 cells assessed as cell growth at 2.13 uM after 48 hrs by SRB assay. The note with it: SK-OV-3, 48 h, read-out: Activity.
A short description of experiment [26]: Cytotoxicity against human SF539 cells assessed as cell growth at 2.13 uM after 48 hrs by SRB assay. The note with it: SF-539, 48 h, read-out: Activity.
A short description of experiment [27]: Cytotoxicity against human HOP92 cells assessed as cell growth at 2.13 uM after 48 hrs by SRB assay. The conditions noted are these: HOP-92, 48 h, read-out: Activity.
Experiment [28] is described as follows: Cytotoxicity against human HCT116 cells assessed as cell growth at 2.13 uM after 48 hrs by SRB assay. The conditions noted are these: HCT-116, 48 h, read-out: Activity.
A short description of experiment [29]: Cytotoxicity against human MOLT4 cells assessed as cell growth at 2.13 uM after 48 hrs by SRB assay. The note with it: MOLT-4, 48 h, read-out: Activity.
The subject of another experiment is EKVX. The experiment can be described thus: Cytotoxicity against human EKVX cells assessed as cell growth at 2.13 uM after 48 hrs by SRB assay. The note with it: read-out: Activity.
Experiment [30] is described as follows: Cytotoxicity against human HCC2998 cells assessed as cell growth at 2.13 uM after 48 hrs by SRB assay. The note with it: HCC 2998, 48 h, read-out: Activity.
A further experiment concerns A498. The experiment can be described thus: Cytotoxicity against human A498 cells assessed as cell growth at 2.13 uM after 48 hrs by SRB assay. The note with it: A498, 48 h, read-out: Activity.

Regarding `CC(C)C[C@H](NC(=O)[C@H](CCCCN)NC(=O)[C@H](C)NC(=O)[C@H](CC(C)C)NC(=O)[C@H](CCCCN)NC(=O)[C@H](CCCCN)NC(=O)[C@H](C)NC(=O)[C@H](CC(C)C)NC(=O)[C@H](CCCCN)NC(=O)[C@H](C)NC(=O)[C@H](CC(C)C)NC(=O)[C@H](CCCCN)NC(=O)[C@@H](N)CC(=O)O)C(=O)N[C@@H](C)C(=O)N[C@@H](CCCCN)C(=O)N[C@@H](C)C(=O)N[C@@H](CCCCN)C(N)=O`, the growth at 10 µM in experiment [1] is 109%; in experiment [2], 86.1%; in the experiment with SK-MEL-28, 104%; in experiment [3], 105%; in experiment [4] it was 108%; with 786-0 [5] it was 105%. Besides, the growth at 10 µM in the experiment with NCI-H322M was found to be 110%; in the experiment on SK-MEL-2, 90.7%; in [6], 107%; in experiment [7], 99.4%; with NCI-H226, 99.1%.

Regarding `CCCCCCCCCCCCCCCC(=O)NCCCC[C@H](NC(=O)[C@H](C)NC(=O)[C@H](CCCCN)NC(=O)[C@H](C)NC(=O)[C@H](CC(C)C)NC(=O)[C@H](CCCCN)NC(=O)[C@H](C)NC(=O)[C@H](CC(C)C)NC(=O)[C@H](CCCCN)NC(=O)[C@H](CCCCN)NC(=O)[C@H](C)NC(=O)[C@H](CC(C)C)NC(=O)[C@H](CCCCN)NC(=O)[C@H](C)NC(=O)[C@H](CC(C)C)NC(=O)[C@H](CCCCN)NC(=O)[C@@H](N)CC(=O)O)C(N)=O`, the growth at 7.25 µM with MDA-MB-468 stood at 95.9%; in experiment [8], 97.6%; in [9], 92.3%; in experiment [10], 87.3%; in experiment [11] it was 101%; in the experiment with K562 it was 102%. In addition, the growth at 7.25 µM turned out to be 113% in [12]; 102% in experiment [13]; 96.4% in [14]; 105% in [15]; 107% with 786-0 [16]; 91.9% with SR. In addition, the growth at 7.25 µM in experiment [17] was 116%; in experiment [18], 103%; in the experiment on MCF7 [19] it was 98.7%; in [20] it was 110%; in [21], 73.1%; in the experiment on SN12C it was 104%. The mortality at 7.25 µM in the experiment with NCI-H522 is 16%.

As for `CCCCCCCCCCCCCCCCNCCO[C@H]1C[C@H](n2cc(C)c(=O)[nH]c2=O)O[C@@H]1C(=O)NCCCC[C@H](NC(=O)[C@H](C)NC(=O)[C@H](CCCCN)NC(=O)[C@H](C)NC(=O)[C@H](CC(C)C)NC(=O)[C@H](CCCCN)NC(=O)[C@H](C)NC(=O)[C@H](CC(C)C)NC(=O)[C@H](CCCCN)NC(=O)[C@H](CCCCN)NC(=O)[C@H](C)NC(=O)[C@H](CC(C)C)NC(=O)[C@H](CCCCN)NC(=O)[C@H](C)NC(=O)[C@H](CC(C)C)NC(=O)[C@H](CCCCN)NC(=O)[C@@H](N)CC(=O)O)C(N)=O`, the growth at 2.13 µM in experiment [22] worked out at 113%; in experiment [23], 94.6%; in the experiment with MCF7 [24] it was 98.9%; in experiment [25] it was 98.4%; in [26] it was 98.8%; in [27], 86.8%. Also, the growth at 2.13 µM in experiment [28] was 99.9%; in experiment [29] it was 97.8%; in the experiment with EKVX, 103%; in experiment [30] it was 104%; in the experiment on A498, 109%.
